The source of these data is publication PMC3639963, “A New Class of Small Molecule Inhibitor of BMP Signaling” (PLoS ONE, 2013).

Holding throughout (test): Nanosyn kinase profiling
Assay type in all cases: biochemical
Common to all, as to details: read-out: Percentage inhibition; for inhibition at 0.1 µM: 0.1 µM inhibitor; for inhibition at 1 µM: 1 µM inhibitor

For assay [1], the target named is T1, CSK (Homo sapiens, UniProt P41240).
T1 construct: purchased Nanosyn (enzymatic panel); SGC in-house recombinant human kinases (DSF panel); Invitrogen (ALK1-6)
As for the experimental part: (§1) Percentage inhibition was determined for each kinase at both 0.1 µM and 1 µM inhibitor concentration (supplemental Table S2). […]. […]. When visualized on a kinase phylogenetic tree, these were primarily clustered within the receptor tyrosine kinases (TKs) as well as the calmodulin-dependent kinases (CAMKs) (Figure 2C).
(§2) Inhibitor selectivity profiling against 200 human kinases at 0.1 and 1 µM inhibitor concentration was performed by Nanosyn (www.nanosyn.com).

The target in assay [2] is T2, ROCK1 (Homo sapiens, UniProt Q13464).
T2 construct: purchased Nanosyn (enzymatic panel); SGC in-house recombinant human kinases (DSF panel); Invitrogen (ALK1-6)
As for the experimental part:
as §1, §2

In assay [3] the target is T3, AKT3 (Homo sapiens, UniProt Q9Y243).
T3 construct: purchased Nanosyn (enzymatic panel); SGC in-house recombinant human kinases (DSF panel); Invitrogen (ALK1-6)
As for the experimental part: as §1, §2

For assay [4], the target named is T4, p38δ (Homo sapiens, UniProt O15264).
T4 construct: purchased Nanosyn (enzymatic panel); SGC in-house recombinant human kinases (DSF panel); Invitrogen (ALK1-6)
T4 sequence (O15264 1-365): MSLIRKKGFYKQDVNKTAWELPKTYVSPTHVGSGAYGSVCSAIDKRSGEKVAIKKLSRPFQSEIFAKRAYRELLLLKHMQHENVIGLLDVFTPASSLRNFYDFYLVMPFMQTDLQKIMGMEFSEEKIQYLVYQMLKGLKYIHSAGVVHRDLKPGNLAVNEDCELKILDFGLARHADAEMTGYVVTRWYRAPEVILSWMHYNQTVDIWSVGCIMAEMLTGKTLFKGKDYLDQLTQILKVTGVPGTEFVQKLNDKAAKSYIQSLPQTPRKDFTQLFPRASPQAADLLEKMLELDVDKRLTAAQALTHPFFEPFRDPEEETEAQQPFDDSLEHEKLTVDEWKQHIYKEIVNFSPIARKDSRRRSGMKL
As for the experimental part: as §1, §2

The target of assay [5] is T5, TSSK2 (Homo sapiens, UniProt Q96PF2).
T5 construct: purchased Nanosyn (enzymatic panel); SGC in-house recombinant human kinases (DSF panel); Invitrogen (ALK1-6)
T5 sequence (Q96PF2 1-358): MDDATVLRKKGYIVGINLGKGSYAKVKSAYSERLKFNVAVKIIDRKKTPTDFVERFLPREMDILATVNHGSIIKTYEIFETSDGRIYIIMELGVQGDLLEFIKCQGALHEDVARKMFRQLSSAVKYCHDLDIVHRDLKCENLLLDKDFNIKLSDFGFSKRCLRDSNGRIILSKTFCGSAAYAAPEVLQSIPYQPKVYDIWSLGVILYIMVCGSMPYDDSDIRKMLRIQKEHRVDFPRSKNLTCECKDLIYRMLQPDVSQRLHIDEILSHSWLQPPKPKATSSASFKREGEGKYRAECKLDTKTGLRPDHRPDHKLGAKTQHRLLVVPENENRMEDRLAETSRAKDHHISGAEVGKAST
As for the experimental part:
as §1, §2

The target of assay [6] is T6, TNK2 (Homo sapiens, UniProt Q07912).
T6 construct: purchased Nanosyn (enzymatic panel); SGC in-house recombinant human kinases (DSF panel); Invitrogen (ALK1-6)
As to the method: as §1, §2

The target in assay [7] is T7, TSSK1 (Homo sapiens, UniProt Q9BXA7).
T7 construct: purchased Nanosyn (enzymatic panel); SGC in-house recombinant human kinases (DSF panel); Invitrogen (ALK1-6)
T7 sequence (Q9BXA7 1-367): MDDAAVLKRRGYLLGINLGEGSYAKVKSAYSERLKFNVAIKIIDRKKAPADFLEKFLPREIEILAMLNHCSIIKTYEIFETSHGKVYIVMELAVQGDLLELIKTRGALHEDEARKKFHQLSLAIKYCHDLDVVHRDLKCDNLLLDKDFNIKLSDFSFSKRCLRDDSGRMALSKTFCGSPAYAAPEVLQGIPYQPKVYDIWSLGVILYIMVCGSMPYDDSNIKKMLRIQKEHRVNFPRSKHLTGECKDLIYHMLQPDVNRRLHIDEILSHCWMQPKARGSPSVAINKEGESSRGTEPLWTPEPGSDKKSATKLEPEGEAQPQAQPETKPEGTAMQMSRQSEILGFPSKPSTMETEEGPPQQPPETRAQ
As to the method: as §1, §2

In assay [8] the target is T8, EPHB2 (Homo sapiens, UniProt P29323).
T8 construct: purchased Nanosyn (enzymatic panel); SGC in-house recombinant human kinases (DSF panel); Invitrogen (ALK1-6)
T8 sequence (P29323 19-1055): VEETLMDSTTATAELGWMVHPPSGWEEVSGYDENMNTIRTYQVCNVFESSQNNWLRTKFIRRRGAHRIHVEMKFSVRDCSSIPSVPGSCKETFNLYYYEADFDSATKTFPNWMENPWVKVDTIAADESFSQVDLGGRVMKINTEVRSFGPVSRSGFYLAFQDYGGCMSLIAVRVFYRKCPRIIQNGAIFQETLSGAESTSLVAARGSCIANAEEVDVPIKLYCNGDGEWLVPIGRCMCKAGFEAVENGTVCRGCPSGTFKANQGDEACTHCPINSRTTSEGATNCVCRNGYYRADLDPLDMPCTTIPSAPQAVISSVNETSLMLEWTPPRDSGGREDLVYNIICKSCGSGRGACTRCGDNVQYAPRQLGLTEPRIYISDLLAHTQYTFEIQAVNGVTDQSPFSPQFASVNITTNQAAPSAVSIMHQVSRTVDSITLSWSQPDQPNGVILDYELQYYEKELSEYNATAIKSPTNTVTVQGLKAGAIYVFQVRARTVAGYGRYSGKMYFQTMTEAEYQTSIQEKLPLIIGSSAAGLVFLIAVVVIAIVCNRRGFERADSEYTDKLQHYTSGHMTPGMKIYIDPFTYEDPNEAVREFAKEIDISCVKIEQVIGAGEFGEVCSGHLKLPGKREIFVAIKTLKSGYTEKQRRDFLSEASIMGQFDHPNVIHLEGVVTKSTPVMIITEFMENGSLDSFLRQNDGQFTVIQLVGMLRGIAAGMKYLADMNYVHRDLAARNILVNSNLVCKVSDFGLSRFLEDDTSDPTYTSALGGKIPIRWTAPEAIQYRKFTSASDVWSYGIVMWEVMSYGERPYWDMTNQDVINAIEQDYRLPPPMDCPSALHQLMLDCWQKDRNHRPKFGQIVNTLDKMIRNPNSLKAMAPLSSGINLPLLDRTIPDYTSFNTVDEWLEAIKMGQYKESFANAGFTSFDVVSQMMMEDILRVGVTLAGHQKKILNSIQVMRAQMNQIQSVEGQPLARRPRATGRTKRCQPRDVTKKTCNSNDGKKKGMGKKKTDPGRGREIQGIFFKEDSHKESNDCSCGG
As for the experimental part: as §1, §2

In assay [9] the target is T9, MRCKβ (Homo sapiens, UniProt Q9Y5S2).
T9 construct: purchased Nanosyn (enzymatic panel); SGC in-house recombinant human kinases (DSF panel); Invitrogen (ALK1-6)
As to the method: as §1, §2

Assay [10] deals with T10, BTK (Homo sapiens, UniProt Q06187).
T10 construct: purchased Nanosyn (enzymatic panel); SGC in-house recombinant human kinases (DSF panel); Invitrogen (ALK1-6)
As to the method:
as §1, §2

T2 sequence (Q13464 whole entry): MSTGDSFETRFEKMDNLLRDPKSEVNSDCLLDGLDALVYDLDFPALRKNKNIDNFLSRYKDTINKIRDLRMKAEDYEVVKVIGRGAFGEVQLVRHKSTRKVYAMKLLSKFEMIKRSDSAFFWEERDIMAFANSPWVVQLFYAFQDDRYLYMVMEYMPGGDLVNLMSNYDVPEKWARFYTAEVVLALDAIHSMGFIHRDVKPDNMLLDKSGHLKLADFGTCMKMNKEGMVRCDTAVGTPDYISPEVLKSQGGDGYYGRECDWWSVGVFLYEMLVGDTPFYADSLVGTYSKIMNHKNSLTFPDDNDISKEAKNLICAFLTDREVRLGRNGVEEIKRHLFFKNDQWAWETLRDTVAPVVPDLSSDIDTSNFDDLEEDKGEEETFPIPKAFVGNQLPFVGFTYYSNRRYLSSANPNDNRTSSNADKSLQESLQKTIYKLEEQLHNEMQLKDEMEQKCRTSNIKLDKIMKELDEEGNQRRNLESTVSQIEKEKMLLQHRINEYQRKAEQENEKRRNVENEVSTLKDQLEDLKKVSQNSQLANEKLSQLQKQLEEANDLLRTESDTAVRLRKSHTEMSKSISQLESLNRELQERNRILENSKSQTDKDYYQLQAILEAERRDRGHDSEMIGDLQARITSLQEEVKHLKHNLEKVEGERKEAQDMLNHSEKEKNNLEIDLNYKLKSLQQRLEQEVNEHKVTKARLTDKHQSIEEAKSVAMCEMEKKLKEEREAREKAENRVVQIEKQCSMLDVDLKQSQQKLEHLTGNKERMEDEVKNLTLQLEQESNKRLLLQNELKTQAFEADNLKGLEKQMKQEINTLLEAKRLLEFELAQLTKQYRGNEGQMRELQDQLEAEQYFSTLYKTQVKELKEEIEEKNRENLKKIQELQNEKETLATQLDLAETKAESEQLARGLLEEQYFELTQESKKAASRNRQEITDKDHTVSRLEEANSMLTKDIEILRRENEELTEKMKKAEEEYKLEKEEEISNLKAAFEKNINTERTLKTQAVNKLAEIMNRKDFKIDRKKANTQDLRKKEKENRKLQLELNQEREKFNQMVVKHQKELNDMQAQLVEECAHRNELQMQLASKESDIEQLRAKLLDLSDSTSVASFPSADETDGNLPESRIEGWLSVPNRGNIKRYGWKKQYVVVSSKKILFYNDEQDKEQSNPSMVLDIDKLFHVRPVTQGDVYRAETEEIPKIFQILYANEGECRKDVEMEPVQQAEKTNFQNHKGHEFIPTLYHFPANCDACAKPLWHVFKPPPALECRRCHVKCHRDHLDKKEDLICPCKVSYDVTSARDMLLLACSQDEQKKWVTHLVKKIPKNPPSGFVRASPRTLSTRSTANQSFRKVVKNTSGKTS
T1 sequence (P41240 whole entry): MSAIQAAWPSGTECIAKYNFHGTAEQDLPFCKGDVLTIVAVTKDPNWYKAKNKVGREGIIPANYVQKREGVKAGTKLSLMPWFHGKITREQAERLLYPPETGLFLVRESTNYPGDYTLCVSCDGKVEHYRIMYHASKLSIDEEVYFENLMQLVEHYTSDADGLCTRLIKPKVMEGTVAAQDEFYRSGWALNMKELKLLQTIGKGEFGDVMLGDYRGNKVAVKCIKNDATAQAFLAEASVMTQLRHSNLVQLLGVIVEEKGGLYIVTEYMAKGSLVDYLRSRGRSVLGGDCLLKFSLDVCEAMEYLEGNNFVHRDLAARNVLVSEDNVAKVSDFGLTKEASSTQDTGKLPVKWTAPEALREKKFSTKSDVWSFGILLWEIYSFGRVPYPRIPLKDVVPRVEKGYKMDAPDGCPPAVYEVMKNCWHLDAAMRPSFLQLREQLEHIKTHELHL
T6 sequence (Q07912 whole entry): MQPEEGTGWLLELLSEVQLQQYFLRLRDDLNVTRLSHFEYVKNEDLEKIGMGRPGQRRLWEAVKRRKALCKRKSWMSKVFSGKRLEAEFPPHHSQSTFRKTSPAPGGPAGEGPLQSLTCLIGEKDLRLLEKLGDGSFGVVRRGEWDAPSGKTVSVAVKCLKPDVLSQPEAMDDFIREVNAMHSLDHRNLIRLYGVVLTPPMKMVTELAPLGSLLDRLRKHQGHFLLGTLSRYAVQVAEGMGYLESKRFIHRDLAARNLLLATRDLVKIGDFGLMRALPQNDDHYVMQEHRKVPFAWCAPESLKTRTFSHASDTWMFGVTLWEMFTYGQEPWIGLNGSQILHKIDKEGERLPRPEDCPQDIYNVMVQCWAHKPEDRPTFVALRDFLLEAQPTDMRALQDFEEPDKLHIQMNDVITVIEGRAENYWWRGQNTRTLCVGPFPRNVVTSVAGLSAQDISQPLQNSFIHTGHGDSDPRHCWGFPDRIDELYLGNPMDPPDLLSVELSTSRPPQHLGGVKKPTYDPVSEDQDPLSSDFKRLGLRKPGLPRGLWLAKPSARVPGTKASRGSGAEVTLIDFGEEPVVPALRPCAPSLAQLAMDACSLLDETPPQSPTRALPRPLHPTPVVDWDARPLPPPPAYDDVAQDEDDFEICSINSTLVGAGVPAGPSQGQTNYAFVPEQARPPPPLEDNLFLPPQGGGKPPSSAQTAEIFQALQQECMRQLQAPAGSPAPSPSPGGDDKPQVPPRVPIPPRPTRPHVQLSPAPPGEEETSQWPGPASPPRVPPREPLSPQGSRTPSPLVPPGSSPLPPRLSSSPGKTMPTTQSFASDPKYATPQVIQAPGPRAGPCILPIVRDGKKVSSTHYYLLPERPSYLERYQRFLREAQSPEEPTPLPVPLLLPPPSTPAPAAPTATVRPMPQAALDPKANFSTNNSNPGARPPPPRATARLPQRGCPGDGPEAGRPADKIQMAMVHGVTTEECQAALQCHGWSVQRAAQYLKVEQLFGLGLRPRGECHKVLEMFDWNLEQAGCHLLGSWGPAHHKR
T9 sequence (Q9Y5S2 whole entry): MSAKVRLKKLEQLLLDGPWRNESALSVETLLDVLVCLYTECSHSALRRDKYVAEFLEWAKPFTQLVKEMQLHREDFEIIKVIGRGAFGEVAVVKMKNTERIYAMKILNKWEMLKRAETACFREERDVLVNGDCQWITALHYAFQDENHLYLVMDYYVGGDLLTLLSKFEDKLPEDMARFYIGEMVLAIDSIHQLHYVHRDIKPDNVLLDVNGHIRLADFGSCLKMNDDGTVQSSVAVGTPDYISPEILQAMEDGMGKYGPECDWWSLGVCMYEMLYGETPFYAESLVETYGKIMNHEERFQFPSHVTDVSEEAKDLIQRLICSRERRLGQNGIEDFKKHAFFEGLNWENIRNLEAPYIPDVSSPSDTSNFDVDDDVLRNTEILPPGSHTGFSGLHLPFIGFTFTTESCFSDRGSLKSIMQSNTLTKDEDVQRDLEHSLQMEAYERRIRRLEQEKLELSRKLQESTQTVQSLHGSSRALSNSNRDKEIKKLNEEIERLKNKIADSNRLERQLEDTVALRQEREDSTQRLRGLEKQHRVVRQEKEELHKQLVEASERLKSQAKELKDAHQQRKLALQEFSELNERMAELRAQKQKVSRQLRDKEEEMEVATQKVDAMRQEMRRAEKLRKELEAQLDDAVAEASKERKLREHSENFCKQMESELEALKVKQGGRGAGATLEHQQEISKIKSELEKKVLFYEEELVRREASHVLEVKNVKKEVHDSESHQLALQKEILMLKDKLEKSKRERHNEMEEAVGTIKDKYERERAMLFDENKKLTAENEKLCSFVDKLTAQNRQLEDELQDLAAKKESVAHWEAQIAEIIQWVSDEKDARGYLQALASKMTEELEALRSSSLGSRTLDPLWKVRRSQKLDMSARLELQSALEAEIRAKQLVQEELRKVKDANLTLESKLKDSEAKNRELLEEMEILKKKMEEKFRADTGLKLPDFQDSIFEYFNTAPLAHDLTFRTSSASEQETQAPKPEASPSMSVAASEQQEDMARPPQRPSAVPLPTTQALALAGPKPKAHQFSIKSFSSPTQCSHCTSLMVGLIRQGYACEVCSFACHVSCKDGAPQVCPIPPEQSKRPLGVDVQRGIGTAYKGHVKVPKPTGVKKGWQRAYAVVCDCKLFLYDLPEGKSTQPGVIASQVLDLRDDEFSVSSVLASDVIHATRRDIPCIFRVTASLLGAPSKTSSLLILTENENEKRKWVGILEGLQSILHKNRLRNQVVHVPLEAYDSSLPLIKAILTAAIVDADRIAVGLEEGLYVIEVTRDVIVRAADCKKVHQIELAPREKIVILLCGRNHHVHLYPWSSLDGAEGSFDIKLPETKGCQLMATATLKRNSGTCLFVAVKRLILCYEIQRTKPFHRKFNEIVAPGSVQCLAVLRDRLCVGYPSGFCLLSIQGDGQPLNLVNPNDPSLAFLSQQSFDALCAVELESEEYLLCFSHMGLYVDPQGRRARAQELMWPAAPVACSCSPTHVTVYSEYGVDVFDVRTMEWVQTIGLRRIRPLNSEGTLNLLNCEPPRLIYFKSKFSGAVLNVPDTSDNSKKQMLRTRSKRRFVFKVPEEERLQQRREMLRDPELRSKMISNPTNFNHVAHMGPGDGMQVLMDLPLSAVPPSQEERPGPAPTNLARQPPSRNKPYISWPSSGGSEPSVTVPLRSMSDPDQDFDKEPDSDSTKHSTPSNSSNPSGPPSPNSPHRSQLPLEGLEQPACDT
T3 sequence (Q9Y243 whole entry): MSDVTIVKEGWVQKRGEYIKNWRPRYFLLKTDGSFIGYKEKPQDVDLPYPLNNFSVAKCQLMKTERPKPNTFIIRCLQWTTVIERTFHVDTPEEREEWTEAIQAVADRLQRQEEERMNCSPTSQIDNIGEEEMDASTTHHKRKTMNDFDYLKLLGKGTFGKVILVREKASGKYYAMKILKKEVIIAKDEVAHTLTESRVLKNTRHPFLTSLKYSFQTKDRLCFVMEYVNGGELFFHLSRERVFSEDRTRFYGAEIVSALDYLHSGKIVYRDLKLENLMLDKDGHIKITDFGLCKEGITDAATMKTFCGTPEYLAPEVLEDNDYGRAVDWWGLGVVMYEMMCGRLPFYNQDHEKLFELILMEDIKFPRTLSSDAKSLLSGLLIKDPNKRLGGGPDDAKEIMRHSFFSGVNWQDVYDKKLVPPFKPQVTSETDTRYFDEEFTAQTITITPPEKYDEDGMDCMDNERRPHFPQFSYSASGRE

As a reminder, the inhibition is the change of the read-out against control, counted positive when it falls. For the compound `c1ccc2c(-c3cnn4cc(-c5ccc(N6CCNCC6)cc5)cnc34)ccnc2c1` [LDN-193189], the inhibition at 0.1 µM in [1] is 3.3%; in [2], 0%; in [3], 0.2%; in assay [4], 1.8%; in assay [5], 0%; in assay [6], 2%. Besides, the inhibition at 0.1 µM in assay [7] is 3.5%; in assay [8], 8.4%; in assay [9] it was 0%; in assay [10], 0.5%. For the same compound, the inhibition at 1 µM in assay [1] amounted to 6%; in assay [2], 0.7%; in [3], 1.5%; in assay [4], 0.5%; in [5], 0.5%; in assay [6], 10%. Further, the inhibition at 1 µM in assay [7] is 5.2%; in [8], 24%; in [9], 2.1%; in [10] it was 1.8%.
For the compound `COc1cc(-c2cc(-c3cccc(O)c3)cnc2N)cc(OC)c1OC` [K02288, 3-[6-amino-5-(3,4,5-trimethoxy-phenyl)-pyridin-3-yl]-phenol], the inhibition at 0.1 µM in assay [1] was 3.2%; in assay [2] it was 0.5%; in [3], -2%; in [4] it was -3%; in assay [5], -1%; in assay [6] it was 3.6%. For the same compound, the inhibition at 0.1 µM in assay [7] was -1%; in assay [8], 0%; in assay [9], 0.6%; in assay [10] it was 0.5%. In addition, the inhibition at 1 µM is 13% in [1]; 3.1% in [2]; 1.2% in assay [3]; -3% in assay [4]; -3% in [5]; 31% in assay [6]. Further, the inhibition at 1 µM is -2% in assay [7], 21% in assay [8], 2% in assay [9] and 6.6% in [10].
